Data set [1] has as its target T1, HIV Reverse Transcriptase (Type B, 66 kDa subunit) (Human immunodeficiency virus type 1 group M subtype B, UniProt P04585).
T1 construct: purified HIV Reverse Transcriptase (Type B, 66 kDa subunit)
The experiment in a line: HIV Reverse Transcriptase inhibition assays (RNA-directed DNA polymerization, PicoGreen fluorescence). In kind it is biochemical. The following applies: Table 1; template (homopolymer or heteropolymer RNA) not stated; read-out: Ki, Inhibition of HIV Reverse Transcriptase by Nucleotide Mimics. The procedure:
The assays employed to measure inhibition of HIV Reverse Transcriptase (HIV RT) catalyzed/RNA-directed DNA polymerization are described below. The effectiveness of the compounds of the present invention as inhibitors of HIV RT-catalyzed DNA polymerization was measured in the following assays.
This assay was used to measure the ability of the nucleotide mimics of the present invention to inhibit the enzymatic synthesis of complementary strand DNA from a DNA-primed template of homopolymeric RNA. This assay is a modification of a published procedure (Seville, et al., “Fluorometric Assay for DNA Polymerases and Reverse Transcriptase”, BioTechniques 1996, 21, 664-72).
The compounds were tested at various concentrations up to 500 μM final concentration. DNA polymerase activity was measured in a reaction buffer containing primed-RNA template and dTTP diluted to appropriate concentrations in assay buffer. Nucleotide mimics of the present invention were diluted in buffer and pipetted into the wells of a 96-well plate. The reaction was initiated by addition of enzyme and allowed to proceed at 37° C. for 10 minutes. The reaction was quenched by addition of 5 μL 0.2 M EDTA, pH 8.0.
200 μL of diluted PicoGreen dsDNA Quantitation Reagent (Molecular Probes, Inc, Eugene, Oreg.) was added to each well of a 96-well plate and incubated at room temperature for 5 minutes. Plate wells were read on a microplate fluorometer (Molecular Devices Corp., Sunnyvale, Calif.). The wells were excited at 480 nm and the fluorescence emission intensity (RFU) was measured at 520 nm. The percentage of inhibition was calculated according to the following equation:
% Inhibition=[1−(RFU in test reaction−RFU in blank)/(RFU in control reaction−RFU in blank)]×100.
Each inhibitor was titrated over an appropriate range of concentrations, and inhibition constants were determined using the following equations:
v=Vm[S]/(Km(1+[I]/Ki)+[S])
Certain compounds of the present invention were also tested to determine their ability to inhibit HIV RT-catalyzed DNA polymerization on a heteropolymeric primed-RNA template in the presence of all four natural deoxynucleotide triphosphate (dNTP) substrates. This assay is a modification of a published procedure (Parker et al., “Mechanism of Inhibition of Human Immunodeficiency Virus Type 1 Reverse Transcriptase and Human DNA Polymerases α, β, and γ by the 5′-Triphosphates of Carbovir,3′-Azido-3′-deoxythymidine,2′-3′-Dideoxyguanosine, and 3′-Deoxythymidine”, J. Biol. Chem. 1991, 266 (3), 1754-62).
HIV RT DNA polymerase activity was measured in a reaction buffer containing primed-ribosomal RNA template and dNTPs diluted to appropriate concentrations in assay buffer and pipetted into 1.5 mL microcentrifuge tubes. Nucleotide mimics of the present invention were diluted in buffer and tested at various concentrations up to 5 μM final concentration. The reaction was initiated by addition of enzyme and allowed to proceed at 42° C. for 60 to 90 minutes. The reaction was quenched by addition of 12 μL 0.2 M EDTA, pH 8.0.
50 μL each of reaction was transferred to the well of a 96-well plate (in duplicate). 200 μL of diluted PicoGreen dsDNA Quantitation Reagent was added to each well of a 96-well plate and incubated at room temperature for 5 minutes. Plate wells were read on a microplate fluorometer. The wells were excited at 480 nm and the fluorescence emission intensity (RFU) was measured at 520 nm. The percentage of inhibition and inhibition constants […] were determined for representative compounds as described above.

The next data set relates to Escherichia coli. The experiment in a line: Antimicrobial assay, minimal inhibitory concentration. The data set is classed as cell-based. The following applies: for MIC: Escherichia coli, read-out: E. coli MIC. The procedure: To examine the antimicrobial potential of the nucleotide mimics of the present invention an assay was employed that allowed the screening of a large number of compounds simultaneously. The type of bacteria chosen to screen the compounds are organisms associated with human disease and represent major groups of bacteria based on their structure and metabolism. Bacterial cultures of Escherichia coli and Staphylococcus aureus were incubated overnight at 37° C. in a shaker incubator. A lawn of each overnight bacterial culture was made by plating […] of bacteria on agar plates containing Nutrient Broth. Immediately after plating, sterile blank paper discs were put on top of the lawn and a compound was applied to each blank paper disc. Plates were then incubated overnight and examined for the inhibition of bacterial growth the following day. […] The plates were incubated overnight at 37° C. and then examined spectrophotometrically at 600 nm to determine the minimum concentration of each compound that inhibited replication of bacteria as determined by no increase in absorbance at 600 nm.

The nature of another data set: in vitro. The procedure: Typically the total volume used for the experiment was 500 μl. The final concentrations of the reaction components were as follows:
The reacton mixtures were made up and incubated at 37° C. At appropriate times aliquots of 25 μl were removed and added to 65 μl ice-cold methanol. These solutions were our at −20° C. and typically overnight. After incubation samples were inutes at high speed in a microcentrifuge. The supernatant was nd the extract was dried under vacuum in a LabConco Centrivap Concentrator. The dried extracts were resuspended in dH2O and filtered to remove particulate before analysis on reverse phase HPLC.
The reverse phase HPLC columns used for the analysis were either a Phenomenex C18 Aqua column (2×100 mm) or the Phenomenex C18 Aqua column (3×150 mm) used with the appropriate guard column. The HPLC was run at 0.2 ml/min (for the 2×100 mm column) or at 0.5 ml/min (for the 3×150 mm column) with the following buffer system: 5 mM tetrabutylammonium acetate, 50 mM ammonium phosphate, and an acetonitrile gradient running from 5% up to as high as 60%. The amount of remaining parent compound at each time point was used to determine the half-life of the compound. […] Unmodified nucleoside triphosphates were used as positive controls.

A short description of data set [2]: Stability assessment using cell extracts. The settings on record: 50% CEM cell extract. The procedure:
The stability of compounds in cell extracts was examined as follows:
Cell lysis buffer was added to cell pellets and the cells frozen and thawed 3× using dry ice. The lysis buffer (LB) was composed of the following: 50 mM Tris-HCl, pH 7.4 (100 μl/ml 10× stock), 20% glycerol (200 μl/ml), and 0.5% Triton X-100 (5 μl/ml). 100 μl of LB was added to each microfuge tube containing 10^7 frozen CEM cells. After the cells were lysed the extracts were centrifuged at high speed in a microcentrifuge for 5 minutes and the clarified cell extract transferred to a new tube. The cell stability reaction mixtures contained concentrations of buffer, magnesium, nucleotide, and cell extract as shown below:
The reaction mixtures were incubated at 37° C. At each time point, including at time zero, 12.5 μl aliquots were added to 40 μl ice-cold methanol. […] The samples were incubated in methanol for at least 60 minutes and typically overnight at −20° C. prior to further processing. The cell extracts were centrifuged at high speed in refrigerated microcentrifuge for 20 minutes and the supernatant transferred to a new tube. The extract was then dried under vacuum in a LabConco Centrivap Concentrator. The samples were then resuspended in 40 or 50 μl dH2O, filtered to remove any particulate, and analyzed by reverse phase HPLC.
The reverse phase HPLC columns used for the analysis were either a Phenomenex C18 Aqua column (2×100 mm) or the Phenomenex C18 Aqua column (3×150 mm) used with the appropriate guard column. The HPLC flow rate was either 0.2 ml/min (for the 2×100 mm column) or 0.5 ml/min (for the 3×150 mm column) with the following buffer system: 5 mM tetrabutylammonium acetate, 50 mM ammonium phosphate, and an acetonitrile gradient running from 5% up to as high as 60%. The amount of remaining parent compound at each time point was used to determine the half-life of the compound. […] Unmodified nucleoside triphosphates were used as positive controls.

Where [3] appears, read: overnight at 37° C., tested 0-200 μg/ml, NA = Not active.
Setting [4] is: value in brackets beside the μg/ml value.

In general, Ki refers to a dissociation constant, usually derived from enzyme kinetics or from competition with a known ligand. The half-life is the time in which the quantity being followed falls by half. A word on the MIC: it is the least concentration at which growth counts as inhibited.

Where two headings read alike, the source gives them in different places.

On to `[BH3-][P+](O)(OCC1OC(n2cc(C)c(=O)[nH]c2=O)CC1N=[N+]=[N-])OP(=O)(O)C(F)(F)P(=O)(O)O` (single isomer, unassigned) [Compound 27-isomer 2, 3′-Azido-3′-deoxythymidine 5′-α-P-borano-β,γ-(difluoromethylene)triphosphate], for which, in data set [1], the Ki turned out to be 61 nM. Moreover, the results for the “E. coli MIC” value with Escherichia coli (setting [3]) and with Escherichia coli (setting [4]) were 50 µg/mL and “(93) uM”, respectively.
Regarding `BP(=O)(OCC1OC(n2cc(C)c(=O)[nH]c2=O)CC1N=[N+]=[N-])OP(=O)(O)C(F)(F)P(=O)(O)O` (single isomer, unassigned; isomer 3) [Compound 27-Isomer, 3′-Azido-3′-deoxythymidine 5′-α-P-borano-β,γ-(difluoromethylene)triphosphate], the “Half-Life, Serum Half-Lives of AZT Triphosphate Mimic Prodrugs” value in the data set “in vitro” (bovine, serum) is greater than 48 h.
Turning to `BP(=O)(OC[C@@H]1O[C@H](n2cc(C)c(=O)[nH]c2=O)C[C@H]1N=[N+]=[N-])OP(=O)(O)OP(=O)(O)O` (stereo partly drawn) [AZT 5′-α-P-boranotriphosphate, reference compound], the “Half-Life, Serum Half-Lives of NTPs and AZT Triphosphate Mimics” value in “in vitro” (bovine, serum) stood at 6 h.
In the case of `Cc1cn([C@H]2C[C@H](O)[C@@H](COP(=O)(O)OP(=O)(O)OP(=O)(O)O)O2)c(=O)[nH]c1=O` [Thymidine Triphosphate, reference compound], the “Half-Life, Serum Half-Lives of NTPs and AZT Triphosphate Mimics” value in “in vitro” (bovine, serum, 500 μM) was 2 h.
Regarding `Cc1cn([C@H]2C[C@H](N=[N+]=[N-])[C@@H](COP(=O)(O)NP(=O)(O)O)O2)c(=O)[nH]c1=O` [Compound 8, 3′-azido-3′-deoxythymidine 5′-imidodiphosphate], the Ki in data set [1] came to 4400 nM.
Regarding `Nc1ncnc2c1ncn2[C@@H]1O[C@H](COP(=O)(O)OP(=O)(O)OP(=O)(O)O)[C@@H](O)[C@H]1O` [Adenosine Triphosphate, reference compound], the “Half-Life, Serum Half-Lives of NTPs and AZT Triphosphate Mimics” value in “in vitro” (Table 6, 50% fetal calf serum, 37° C., 500 μM, time points through 48 hours) is 2 h. Also, the half-life at 500 μM in “in vitro” (bovine, 50% fetal calf serum, Serum Half-Lives of AZT Triphosphate Mimic Prodrugs, Table 7, 37° C., 500 μM, time points through 48 hours) was 90 min; in “in vitro” (bovine, 50% fetal calf serum, Serum Half-Lives of Gemcitibine Diphosphate Mimics and Their Prodrugs, Table 8, 37° C., 500 μM, time points through 48 hours), 150 min; in data set [2] (human, pH 7.4), 15 min. The “Half-Life, Cell Extract Half-Lives of AZT 5'-α-P-borano-β,γ-(difluoromethylene) triphosphate Prodrugs” value in data set [2] (Table 10, 37° C., 500 μM, time points through 48 hours) is 15 min. Also, the “Half-Life, Cell Extract Half-Lives of Gemcitibine 5'-Methylendiphosphonate and its Prodrugs” value in data set [2] (Table 11, 37° C., 500 μM, time points through 48 hours) amounted to 15 min.
Consider `BP(=O)(OC[C@H]1O[C@@H](n2cc(C)c(=O)[nH]c2=O)C[C@@H]1N=[N+]=[N-])OP(=O)(O)C(F)P(=O)(O)O` (stereo partly drawn) [Compound 25, 3′-Azido-3′-deoxythymidine 5′-α-P-borano-β,γ-(fluoromethylene)triphosphate], for which the Ki in data set [1] amounted to 27 nM.
Regarding `Cc1cn([C@H]2C[C@H](N=[N+]=[N-])[C@@H](COP(=O)(O)OP(=O)(O)OP(=O)(O)O)O2)c(=O)[nH]c1=O` [AZT Triphosphate, 3′-azido-3′-deoxythymidine (AZT, an anti-HIV drug) triphosphate, reference compound], in “in vitro” (bovine, serum), the “Half-Life, Serum Half-Lives of NTPs and AZT Triphosphate Mimics” value came out at 2 h.
`Cc1cn([C@H]2C[C@H](N=[N+]=[N-])[C@@H](CO)O2)c(=O)[nH]c1=O` [AZT, 3′-azido-3′-deoxythymidine, reference compound]: the MIC in the data set on Escherichia coli (setting [3]) is 2 µg/mL; in the data set on Escherichia coli (setting [4]), 7.5 µM.
With `Cc1cn(C2CC(N=[N+]=[N-])C(COP(O)(=S)OP(=O)(O)C(F)(F)P(=O)(O)O)O2)c(=O)[nH]c1=O` (stereo not drawn) [Compound 29, 3′-Azido-3′-deoxythymidine 5′-α-P-thio-β,γ-(difluoromethylene)triphosphate], the inhibitory constant (Ki) in data set [1] is 90 nM.
Take `Cc1cn([C@H]2C[C@@H](N=[N+]=[N-])[C@@H](COP(=O)(O)NP(=O)(OCCSC(=O)C(C)(C)C)OCCSC(=O)C(C)(C)C)O2)c(=O)[nH]c1=O` [Compound 71, 3′-Azido-3′-deoxythymidine 5′-β,β-O-di(S-pivaloyl-2-thioethyl)imidodiphosphate]: the MIC with Escherichia coli (setting [3]) was found to be 20 µg/mL; with Escherichia coli (setting [4]), 28 µM.
With “3′-Azido-3′-deoxythymidine 5′-α-P-borano-β,γ-imidotriphosphate [Compound 23]”, the Ki in data set [1] is 105 nM. Besides, in “in vitro” (bovine, serum), the “Half-Life, Serum Half-Lives of NTPs and AZT Triphosphate Mimics” value was found to be 36 h. Moreover, the “E. coli MIC” value with Escherichia coli (setting [3]) was 50 to 100 µg/mL; in the data set with Escherichia coli (setting [4]), “(99-198) uM”.

These data come from patent US20040059104A1, “Nucleotide mimics and their prodrugs” (priority 2002, published 2004).
